The source of these data is paper PMC11233548 (Communications Biology, 2024).

For one assay, the target named is Gal1. Set-up: method as in PMID 24569991, PMID 7890630. The conditions noted are these: dimerization; read-out: KD, Gal1 dimer; cited from earlier work.
A further assay concerns B-Raf. Briefly: Split-luciferase KinCon B-Raf biosensor. The assay is classed as cell-based. The conditions noted are these: expression 48 h, HEK cells; n = 3. The method, then:
HEK 293-EBNA cells were seeded in a 12-well plate (Greiner Bio-One, #665180) in 1 ml complete DMEM and grown for 24 h. The next day 0.5 µg of KinCon sensor plasmid pcDNA-RlucF1-BRAF-RlucF2 was transfected along with 0.1–0.5 µg of modulator plasmid encoding either SNAP-H-RasG12V or Gal1) using jetPRIME as per manufacturer protocol; pcDNA3.1(−) Thermo Fisher Scientific, #V79520) was used to buffer the total amount of plasmid load per well to 1 µg. After 48 h of expression cells were collected and washed in PBS. Cells from one well of the 12-well plate were resuspended in 200 µL of PBS and 2× 90 µL were pipetted into a white 96-well plate (Nunc, Thermo Fisher Scientific, #236108). Then coelenterazine h was added to a final concentration of 5 µM and the luminescence signal at 480 ± 10 nm was collected for 10 s. The basically background-free signal was normalized against the signal without modulator plasmid.

A further assay has as its system H-RasG12V nanoclustering. Briefly: H-RasG12V nanoclustering-BRET in HEK cells. To be noted: expression 48 h; donor:acceptor 1:5; n = 4. It is filed as cell-based, human. (In general: BRET reads energy transfer from a luciferase to a nearby fluorophore.)
Another assay has as its target RBD of Raf proteins. Further details: method as in PMID 27087647. To be noted: direct binding; read-out: KD, Gal1 to RBD of Raf proteins; cited from earlier work.
A further assay relates to A-RBD-D75A. The assay is described as follows: BRET-titration Gal1/A-RBD-D75A. To be noted: versus wild-type, n = 3. It is filed as cell-based, human.
The target in a further assay is GST-B-RBD (Homo sapiens, UniProt P15056). The assay is described as follows: Competitive fluorescence polarization, displacement of F-L5UR from GST-B-RBD. It is filed as binding. The conditions noted are these: competitive fluorescence polarization with F-L5UR; Fig. 2e: F-L5UR (10 nM), GST-B-RBD (15 µM); method: 5 nM F-L5UR, 200 nM RBD; pH 7.4; 30 min, ~22 °C; n = 3. On the technique in general: Fluorescence polarisation rises when a labelled molecule tumbles more slowly, as on binding a larger partner.

A further assay deals with T1, B-RBD (Homo sapiens, UniProt P15056).
T1 construct: GST-tagged B-Raf-RBD (residues 155–227 of human B-Raf); GST (N); made in house; host or cells: E. coli BL21 Star (DE3)pLysS
The assay is described as follows: QRET assay, Eu-L5URcore binding to B-RBD. The conditions noted are these: Eu-L5URcore (29 nM), B-RBD twofold dilutions, MT2 quencher, 10 mM HEPES pH 7.4, 10 mM NaCl, 30 min, ~22 °C, time-resolved luminescence, n = 2, read-out: IC50. The method, then: The QRET assays were modified from our previously described quenching luminescence assays[69]–[71]. Ac-K-L5URcore was conjugated with nonadentate europium chelate, {2,2′,2′′,2’“-{[4′-(4’“-isothiocyanatophenyl)-2,2′,6′,2′′-terpyridine-6,6′′-diyl]bis(methylene-nitrilo)}tetrakis(acetate)}europium(III) (QRET Technologies, Finland) via the epsilon amine of the N-terminal lysine that was added to the L5UR-core peptide sequence and purified with analytical reverse-phase HPLC. The current homogeneous QRET binding assay is based on the quenching of non-bound Eu-K-L5URcore with MT2 quencher (QRET Technologies), while bound labeled peptide is luminescent. In the assay, purified B-RBD or Gal1 were twofold diluted in an assay buffer containing 10 mM HEPES pH 7.4 and 10 mM NaCl added in 5 μL to a white low-volume, round bottom 384-well plate. Eu-K-L5UR core peptide (29 nM), mixed with MT2 according to the manufacturer’s instructions in the assay buffer supplemented with 0.01% (v/v) Triton X-100, was added in 5 μL volume to wells, and incubated for 30 min at ~22 °C on a shaker. The luminescence was measured with Tecan Spark multimode microplate reader (Tecan, Austria) in time-resolved mode using λexcitation 340 ± 40 nm and λemission 620 ± 10 nm with 800 μs delay and 400 μs window times.

The target of the next assay is T2, C-RBD (Homo sapiens, UniProt P04049).
T2 construct: GST-tagged C-Raf-RBD (residues 50–134 of human C-Raf); GST (N, cleaved yes); made in house; host or cells: E. coli BL21 Star (DE3)pLysS
The assay is described as follows: Competitive fluorescence polarization, displacement of F-L5UR from C-RBD. It is filed as binding. To be noted: F-L5UR (5 nM), C-RBD (200 nM), pH 7.4, 30 min, ~22 °C, n = 3.

Residues, ends and D or L forms follow the SMILES beside them.

GST-B-RBD, sequence (P15056 155-227): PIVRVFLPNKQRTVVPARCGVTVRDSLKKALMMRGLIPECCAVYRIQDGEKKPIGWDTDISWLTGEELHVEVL
T1 sequence (P15056 155-227): as above
Procedure for A-RBD-D75A: We employed the BRET2 system where RLuc8 and GFP2 luminophores were predominantly used as the donor and acceptor, respectively, with coelenterazine 400a as the substrate. A CLARIOstar plate reader from BMG Labtech was used for BRET and fluorescence intensity measurement. The BRET protocol was adapted as described by us[73].
In brief, 150,000–200,000 HEK293-EBNA cells were seeded per well of a 12-well plate and grown for 24 h in 1 mL of complete DMEM. The next day, the cells were transfected with ~1 µg of plasmid DNA per well using a 3 µL jetPRIME transfection reagent. For the donor saturation titration, 25 ng of the donor plasmid was transfected with an acceptor plasmid concentration ranging from 25 to 1000 ng. […]
First, the fluorescence intensity of GFP2 was measured (λexcitation 405 ± 10 nm and λemission 515 ± 10 nm), which is directly proportional to the acceptor expression (RFU). Then 10 µM of coelenterazine 400a (GoldBio, #C-320) was added to the cells, and BRET readings were recorded simultaneously at λemission 410 ± 40 nm (RLU) and 515 ± 15 nm (BRET signal). Emission intensity measured at 410 nm is directly proportional to the donor expression. The raw BRET ratio was calculated as the ratio of BRET signal/RLU. […] The relative expression was calculated as the ratio of RFU/RLU. […]

A word on the Kd: it is the free concentration of one partner at which half of the binding sites on the other are occupied at equilibrium, for simple one-to-one binding. For the molecule “Gal1: galectin-1, H-Ras nanocluster scaffold”, the results for the Kd at Gal1 and on RBD of Raf proteins were 7 µM and 0.106 ± 0.04 µM, respectively. The “luminescence signal of KinCon B-Raf biosensor” value with B-Raf is listed as “likewise reduced the luminescence signal”. Moreover, the “effect of Gal1 expression on H-RasG12V nanoclustering-BRET” value in the assay with H-RasG12V nanoclustering is recorded as “increased H-RasG12V nanoclustering-BRET in a dose-dependent manner”. Moreover, the “BRETtop, Gal1/A-RBD-D75A” value with A-RBD-D75A is “significantly reduced”.
One may read the IC50 as the concentration that inhibits the measured activity by half. As for `CC(=O)N[C@@H](CO)C(=O)N[C@@H](CCCNC(=N)N)C(=O)N[C@@H](CO)C(=O)N[C@@H](CO)C(=O)N[C@@H](CC(C)C)C(=O)N[C@@H](CCCNC(=N)N)C(=O)N[C@@H](CO)C(=O)N[C@@H](CCCNC(=N)N)C(=O)N[C@@H](Cc1c[nH]c2ccccc12)C(=O)NCC(=O)N[C@@H](CCCNC(=N)N)C(=O)N[C@@H](Cc1ccccc1)C(=O)N[C@@H](CC(C)C)C(=O)N[C@@H](CC(C)C)C(=O)N[C@@H](CCC(N)=O)C(=O)N[C@@H](CCCNC(=N)N)C(=O)NCC(=O)N[C@@H](CO)C(=O)N[C@@H](Cc1c[nH]c2ccccc12)C(=O)N[C@H](C(=O)NCC(=O)N1CCC[C@H]1C(=O)N[C@@H](CCCNC(=N)N)C(N)=O)[C@@H](C)O` [L5URcore] (Ac-SRSSLRSRWGRFLLQRGSWTGPR-NH2), the IC50 worked out at 41 ± 1 µM at GST-B-RBD and 14 ± 6 µM at C-RBD. Further, the EC50 (B-RBD binding to Eu-L5URcore) at B-RBD came out at 18 ± 1 µM.
